What was measured:
[1] = tested on: HPAC (homozygous mutant KRAS G12D human pancreatic cell line); assay: KRAS 3D-Cell Proliferation Assay, HPAC (Example 503); assay type: cell-based; settings: Homo sapiens, HPAC, 168 h, HPAC 3D culture, 7 days, CellTiter-Glo 3D; read-out: Prolif HPAC 3D ATP IC50
Experimental: (§1) Example 503: KRAS 3D-Cell Proliferation Assays. Cellular potencies of compounds are assessed by evaluating inhibition of proliferation in 3D cultures of homozygous mutant KRAS G12D human pancreatic cell lines (AsPC-1 and HPAC) as compared to a KRAS wild type human lung adenocarcinoma cell line (PC-9 and/or H1975). Cells are seeded into 384-well black round-bottom, ultra-low attachment assay plates in 50 uL cell growth medium (RPMI-1640 with 10% fetal bovine serum and 2 mM L-glutamine). After overnight incubation at 37° C. and 5% CO2, compounds solubilized in DMSO are added as dilution series to the wells in a total volume of 150 nL (0.3% DMSO final). The cells are incubated for 7 days at 37° C. and 5% CO2. Cell proliferation is quantitated by addition of 40 uL/well of CellTiter-GloÒ 3D (Promega), and the well contents are mixed 20× at high speed using liquid handling automation workstation (Bravo with 384-well head) and centrifuged at 1500 rpm for 2 minutes to eliminate bubbles. This reagent in combination with mechanical disruption releases the cellular ATP to promote activity in a luciferase-based enzyme/substrate chemiluminescent detection system. After a 30-minute incubation under ambient conditions with shaking and an additional 10 minutes without shaking, the luminescence is read on a plate reader (e.g., EnVision [PerkinElmer]). The results are normalized to percent inhibition based on the following control samples: DMSO (0% inhibition) and 1 μM staurosporine (100% inhibition). The normalized luminescence results are plotted against compound concentration, and the data are fit to a 4-parameter Hill equation to determine the IC50 values.

[2] = tested on: H1975 (KRAS wild type human lung adenocarcinoma cell line); assay: KRAS 3D-Cell Proliferation Assay, H1975 (Example 503); assay type: cell-based; settings: Homo sapiens, NCI-H1975, 168 h, H1975 3D culture, 7 days, CellTiter-Glo 3D; read-out: Prolif H1975 3D ATP IC50
Experimental: as §1

For `Cc1c(F)c(N)cc(-c2nc3c4c(nc(OC[C@@]56CCCN5C[C@H](F)C6)nc4c2F)N2C[C@H]4CC[C@H](N4)[C@H]2[C@H](C)O3)c1C=O` [Compound 59, 4-Amino-3-fluoro-6-((5S,5aS,6S,9R)-1-fluoro-12-(((2R,7aS)-2-fluorotetrahydro-1H-pyrrolizin-7a(5H)-yl)methoxy)-5-methyl-5a,6,7,8,9,10-hexahydro-5H-4-oxa-3,10a,11,13,14-pentaaza-6,9-methanonaphtho[1,8-ab]heptalen-2-yl)-2-methylbenzaldehyde], the IC50 [1] was 117 nM and the IC50 [2] was 10500 nM.

`Cc1nc(N)cc(-c2nc3c4c(nc(OCC5(CN6CCC7(C6)CC7(F)F)CC5)nc4c2F)N2C[C@H]4CC[C@H](N4)[C@H]2[C@H](C)O3)c1C(F)(F)F` (stereo partly drawn) [Compound 279, 4-((5S,5aS,6S,9R)-12-((1-((1,1-difluoro-5-azaspiro[2.4]heptan-5-yl)methyl)cyclopropyl)methoxy)-1-fluoro-5-methyl-5a,6,7,8,9,10-hexahydro-5H-4-oxa-3,10a,11,13,14-pentaaza[6,9]methanonaphtho[1,8-ab]heptalene-2-yl)-6-methyl-5-(trifluoromethyl)pyridin-2-amine] was tested, and the IC50 [1] was 2.02 nM and the IC50 [2] was 1270 nM.

In the case of `Cc1c(F)c(N)c(F)c(-c2nc3c4c(nc(OC[C@@]56CCCN5C[C@H](F)C6)nc4c2F)N2C[C@H]4CC[C@H](N4)[C@H]2[C@H](C)O3)c1Cl` [Compound 195, 4-Chloro-2,6-difluoro-3-((5S,5aS,6S,9R)-1-fluoro-12-(((2R,7aS)-2-fluorotetrahydro-1H-pyrrolizin-7a(5H)-yl)methoxy)-5-methyl-5a,6,7,8,9,10-hexahydro-5H-4-oxa-3,10a,11,13,14-pentaaza-6,9-methanonaphtho[1,8-ab]heptalen-2-yl)-5-methylaniline], the IC50 [1] is reported as 22.1 nM and the IC50 [2] is reported as 1340 nM.

`Cc1nc(N)cc(-c2nc3c4c(nc(OCC56CCN5CC(F)(F)C6)nc4c2F)N2C[C@H]4CC[C@H](N4)[C@H]2[C@H](C(F)(F)F)O3)c1C(F)(F)F` (single isomer, unassigned) [252 (isomer 2)] showed an IC50 [1] of 119 nM and an IC50 [2] of 20000 nM.

For `Cc1c(F)c(N)cc(-c2nc3c4c(nc(OCC5CCC6CC(F)CN56)nc4c2F)N2CC4CCC(N4)C2C(C)O3)c1C(F)(F)F` (single isomer, unassigned) [152 (isomer 2)], the IC50 [1] was 299 nM and the IC50 [2] was 6330 nM.

Work on `Cc1c(F)c(N)cc(-c2nc3c4c(nc(OC[C@H](F)CN5CC6(COC6)C5)nc4c2F)N2C[C@H]4CC[C@H](N4)[C@H]2[C@H](C)O3)c1C(F)(F)F` [Compound 144] yielded an IC50 [1] of 21.2 nM and an IC50 [2] of 7510 nM.

`COC1(C)CN(CC2(COc3nc4c5c(nc(-c6cc(N)nc(C)c6C(F)(F)F)c(F)c5n3)O[C@@H](C)[C@@H]3[C@@H]5CC[C@H](CN43)N5)CC2)C1` [Compound 273, 4-((5S,5aS,6S,9R)-1-fluoro-12-((1-((3-methoxy-3-methylazetidin-1-yl)methyl)cyclopropyl)methoxy)-5-methyl-5a,6,7,8,9,10-hexahydro-5H-4-oxa-3,10a,11,13,14-pentaaza-6,9-methanonaphtho[1,8-ab]heptalene-2-yl)-6-methyl-5-(trifluoromethyl)pyridin-2-amine] gave an IC50 [1] of 6.53 nM and an IC50 [2] of 3190 nM.

`Cc1c(F)c(N)cc(-c2nc3c4c(nc(OC[C@@]56CCCN5C[C@H](F)C6)nc4c2F)N2C[C@H]4CC[C@H](N4)[C@H]2C(CF)O3)c1C(F)(F)F` (stereo partly drawn) [Compound 239, 2-Fluoro-5-((5aS,6S,9R)-1-fluoro-5-(fluoromethyl)-12-(((2R,7aS)-2-fluorotetrahydro-1H-pyrrolizin-7a(5H)-yl)methoxy)-5a,6,7,8,9,10-hexahydro-5H-4-oxa-3,10a,11,13,14-pentaaza-6,9-methanonaphtho[1,8-ab]heptalen-2-yl)-3-methyl-4-(trifluoromethyl)aniline] gave an IC50 [1] of 33.4 nM and an IC50 [2] of 569 nM.

From US12338256B2, “Aza-tetracyclic oxazepine compounds and uses thereof” (Genentech, Inc., priority 2022, dated 2025)
